# Data as given in US20230081426A1, “COMPOUNDS AND METHODS FOR KRAS MODULATION AND INDICATIONS THEREFOR” (Plexxikon Inc., priority 2020, published 2023).
# Key:
# [1] = target: T1, G12V-mutant human KRAS (amino acid residues 1-188) (Homo sapiens, UniProt P01116, G12V); assay: KRAS Binding Competition Assay (AlphaScreen; biotinylated KRpep-2d analogue), G12V; conditions: geometric mean, read-out: KRAS GMean IC50 (uM) MUTATION: G12V
# T1 construct: G12V-mutant human KRAS (amino acid residues 1-188) with FLAG tag was purified from E. coli; made in house; host or cells: E. coli
# [2] = target: T2, G12D-mutant human KRAS (amino acid residues 1-188) (Homo sapiens, UniProt P01116, G12D); assay: KRAS Binding Disruption Assay (AlphaScreen; biotinylated KRpep-2d analogue or RAF1-RBD), G12D; conditions: KRAS G12D; geometric mean; read-out: KRAS GMean IC50 (uM) MUTATION: G12D
# T2 construct: G12D or G12C-mutant human KRAS (amino acid residues 1-188) with FLAG tag; made in house; host or cells: E. coli
# How it was run: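 Displacement format with mutant KRAS, biotinylated KRpep-2d analogue or RAF1-RBD (5-20 nM each) at pH 7.5 with 5 mM MgCl2.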
smiles,measurement,setting,value
"CN1CCC[C@H]1COc1nc(N2[C@@H]3CC[C@H]2CNC3)c2ccc(-c3c(F)ccc(N)c3F)cc2n1 [P-0288, 3-(4-((1R,5S)-3,8-diazabicyclo[3.2.1]octan-8-yl)-2-(((S)-1-methylpyrrolidin-2-yl)methoxy)quinazolin-7-yl)-2,4-difluoroaniline]",IC50,[1],10 to 100 µM
same,IC50,[2],10 to 100 µM
"CN1CCC[C@H]1COc1nc(N2C[C@H]3CC[C@@H](C2)N3)c2ccc(Nc3n[nH]c4ccccc34)cc2n1 [P-0289, 4-((1R,5S)-3,8-diazabicyclo[3.2.1]octan-3-yl)-N-(1H-indazol-3-yl)-2-(((S)-1-methylpyrrolidin-2-yl)methoxy)quinazolin-7-amine]",IC50,[1],10 to 100 µM
same,IC50,[2],10 to 100 µM
"CN1CCC[C@H]1COc1nc(N2[C@@H]3CC[C@H]2CNC3)c2ccc(-c3c(O)cccc3Cl)cc2n1 [P-0290, 2-(4-((1R,5S)-3,8-diazabicyclo[3.2.1]octan-8-yl)-2-(((S)-1-methylpyrrolidin-2-yl)methoxy)quinazolin-7-yl)-3-chlorophenol]",IC50,[1],10 to 100 µM
same,IC50,[2],10 to 100 µM
"Cc1cccc(N)c1-c1ccc2c(N3[C@@H]4CC[C@H]3CNC4)nc(OC[C@@H]3CCCN3C)nc2c1 [P-0291, 2-(4-((1R,5S)-3,8-diazabicyclo[3.2.1]octan-8-yl)-2-(((S)-1-methylpyrrolidin-2-yl)methoxy)quinazolin-7-yl)-3-methylaniline]",IC50,[1],10 to 100 µM
same,IC50,[2],10 to 100 µM
"CN1CCC[C@H]1COc1nc(N2[C@@H]3CC[C@H]2CN(C(=O)CC2SC(=O)NC2=O)C3)c2ccc(-c3cc(O)cc4ccccc34)cc2n1 (stereo partly drawn) [P-0292, 5-(2-((1R,5S)-8-(7-(3-hydroxynaphthalen-1-yl)-2-(((S)-1-methylpyrrolidin-2-yl)methoxy)quinazolin-4-yl)-3,8-diazabicyclo[3.2.1]octan-3-yl)-2-oxoethyl)thiazolidine-2,4-dione]",IC50,[1],10 to 100 µM
same,IC50,[2],10 to 100 µM
"CN1CCC[C@H]1COc1nc(N2C[C@H]3CC[C@@H](C2)N3)c2ccc(-c3c[nH]c4ccccc34)c(F)c2n1 [P-0293, 4-((1R,5S)-3,8-diazabicyclo[3.2.1]octan-3-yl)-8-fluoro-7-(1H-indol-3-yl)-2-(((S)-1-methylpyrrolidin-2-yl)methoxy)quinazoline]",IC50,[1],10 to 100 µM
same,IC50,[2],0.0001 to 10 µM
"CN1CCC[C@H]1COc1nc(N2C[C@H]3CC[C@@H](C2)N3)c2ccc(-c3c[nH]c4cccc(Cl)c34)c(F)c2n1 [P-0294, 4-((1R,5S)-3,8-diazabicyclo[3.2.1]octan-3-yl)-7-(4-chloro-1H-indol-3-yl)-8-fluoro-2-(((S)-1-methylpyrrolidin-2-yl)methoxy)quinazoline]",IC50,[1],10 to 100 µM
same,IC50,[2],10 to 100 µM
"CN1CCC[C@H]1COc1nc(N2C[C@H]3CC[C@@H](C2)N3)c2ccc(-c3c[nH]c4ccc(Cl)cc34)c(F)c2n1 [P-0295, 4-((1R,5S)-3,8-diazabicyclo[3.2.1]octan-3-yl)-7-(5-chloro-1H-indol-3-yl)-8-fluoro-2-(((S)-1-methylpyrrolidin-2-yl)methoxy)quinazoline]",IC50,[1],100 to 1000 µM
same,IC50,[2],0.0001 to 10 µM
"CN1CCC[C@H]1COc1nc(N2CC3CCCC2CN3)c2ccc(-c3cc(O)cc4ccccc34)c(F)c2n1 (stereo partly drawn) [P-0296, 4-(4-(6,8-diazabicyclo[3.2.2]nonan-6-yl)-8-fluoro-2-(((S)-1-methylpyrrolidin-2-yl)methoxy)quinazolin-7-yl)naphthalen-2-ol]",IC50,[1],10 to 100 µM
same,IC50,[2],0.0001 to 10 µM
"CN1CC[C@@H](NC(=O)N2CC3CCCC2CN3c2nc(OC[C@@H]3CCCN3C)nc3c(F)c(-c4cc(O)cc5ccccc45)ccc23)C1 (stereo partly drawn) [P-0297, 8-(8-fluoro-7-(3-hydroxynaphthalen-1-yl)-2-(((S)-1-methylpyrrolidin-2-yl)methoxy)quinazolin-4-yl)-N-((R)-1-methylpyrrolidin-3-yl)-6,8-diazabicyclo[3.2.2]nonane-6-carboxamide]",IC50,[1],0.0001 to 10 µM
same,IC50,[2],0.0001 to 10 µM
"CN1CCC[C@H]1COc1nc(N2CC3CCCC2CN3C(=O)NC2CCOC2)c2ccc(-c3cc(O)cc4ccccc34)c(F)c2n1 (stereo partly drawn) [P-0298, 8-(8-fluoro-7-(3-hydroxynaphthalen-1-yl)-2-(((S)-1-methylpyrrolidin-2-yl)methoxy)quinazolin-4-yl)-N-(tetrahydrofuran-3-yl)-6,8-diazabicyclo[3.2.2]nonane-6-carboxamide]",IC50,[1],0.0001 to 10 µM
same,IC50,[2],0.0001 to 10 µM
"CN1CCC[C@H]1COc1nc(N2[C@@H]3CC[C@H]2CNC3)c2ccc(-c3c(N)cccc3Cl)cc2n1 [P-0300, 2-(4-((1R,5S)-3,8-diazabicyclo[3.2.1]octan-8-yl)-2-(((S)-1-methylpyrrolidin-2-yl)methoxy)quinazolin-7-yl)-3-chloroaniline]",IC50,[1],10 to 100 µM
same,IC50,[2],10 to 100 µM
"Oc1cc(-c2ccc3c(N4[C@@H]5CC[C@H]4CNC5)nc(Cc4ccncc4)nc3c2)c2ccccc2c1 [P-0301, 4-(4-((1R,5S)-3,8-diazabicyclo[3.2.1]octan-8-yl)-2-(pyridin-4-ylmethyl)quinazolin-7-yl)naphthalen-2-ol]",IC50,[1],0.0001 to 10 µM
same,IC50,[2],0.0001 to 10 µM
"CN1CCC[C@H]1COc1nc(N2C[C@H]3CC[C@@H](C2)N3)c2cc(F)c(-c3c(O)cccc3F)c(F)c2n1 [P-0302, 2-(4-((1R,5S)-3,8-diazabicyclo[3.2.1]octan-3-yl)-6,8-difluoro-2-(((S)-1-methylpyrrolidin-2-yl)methoxy)quinazolin-7-yl)-3-fluorophenol]",IC50,[1],10 to 100 µM
same,IC50,[2],0.0001 to 10 µM
"Cc1ccc2[nH]ncc2c1-c1c(F)cc2c(N3C[C@H]4CC[C@@H](C3)N4)nc(OC[C@@H]3CCCN3C)nc2c1F [P-0303, 4-((1R,5S)-3,8-diazabicyclo[3.2.1]octan-3-yl)-6,8-difluoro-7-(5-methyl-1H-indazol-4-yl)-2-(((S)-1-methylpyrrolidin-2-yl)methoxy)quinazoline]",IC50,[1],10 to 100 µM
same,IC50,[2],0.0001 to 10 µM
"CN1CCC[C@H]1COc1nc(N2[C@@H]3CC[C@H]2CNC3)c2ccc(-c3cc(CO)cc4ccccc34)cc2n1 [P-0304, (4-(4-((1R,5S)-3,8-diazabicyclo[3.2.1]octan-8-yl)-2-(((S)-1-methylpyrrolidin-2-yl)methoxy)quinazolin-7-yl)naphthalen-2-yl)methanol]",IC50,[1],10 to 100 µM
same,IC50,[2],10 to 100 µM
"CN1CCC[C@H]1COc1nc(N2C[C@H]3CC[C@@H](C2)N3)c2cc(F)c(N3CCNc4ccccc43)c(F)c2n1 [P-0305, 4-((1R,5S)-3,8-diazabicyclo[3.2.1]octan-3-yl)-7-(3,4-dihydroquinoxalin-1(2H)-yl)-6,8-difluoro-2-(((S)-1-methylpyrrolidin-2-yl)methoxy)quinazoline]",IC50,[1],10 to 100 µM
same,IC50,[2],0.0001 to 10 µM
"CN1CCC[C@H]1COc1nc(N2C[C@H]3CC[C@@H](C2)N3)c2ccc(N3CCNc4ccccc43)c(F)c2n1 [P-0306, 4-((1R,5S)-3,8-diazabicyclo[3.2.1]octan-3-yl)-7-(3,4-dihydroquinoxalin-1(2H)-yl)-8-fluoro-2-(((S)-1-methylpyrrolidin-2-yl)methoxy)quinazoline]",IC50,[1],10 to 100 µM
same,IC50,[2],0.0001 to 10 µM
"CN1CCC[C@H]1COc1nc(N2C[C@H]3CC[C@@H](C2)N3)c2ccc(N3CC(O)Cc4ccccc43)c(F)c2n1 (stereo partly drawn) [P-0307, 1-(4-((1R,5S)-3,8-diazabicyclo[3.2.1]octan-3-yl)-8-fluoro-2-(((S)-1-methylpyrrolidin-2-yl)methoxy)quinazolin-7-yl)-1,2,3,4-tetrahydroquinolin-3-ol]",IC50,[1],10 to 100 µM
same,IC50,[2],0.0001 to 10 µM
"CN1CCC[C@H]1COc1nc(N2C[C@H]3CC[C@@H](C2)N3)c2cc(F)c(-c3c[nH]c4ccccc34)c(F)c2n1 [P-0308, 4-((1R,5S)-3,8-diazabicyclo[3.2.1]octan-3-yl)-6,8-difluoro-7-(1H-indol-3-yl)-2-(((S)-1-methylpyrrolidin-2-yl)methoxy)quinazoline]",IC50,[1],10 to 100 µM
same,IC50,[2],0.0001 to 10 µM
"CN1CCC[C@H]1COc1nc(N2C[C@H]3CC[C@@H](C2)N3)c2cc(F)c(-c3c[nH]c4cccc(Cl)c34)c(F)c2n1 [P-0309, 4-((1R,5S)-3,8-diazabicyclo[3.2.1]octan-3-yl)-7-(4-chloro-1H-indol-3-yl)-6,8-difluoro-2-(((S)-1-methylpyrrolidin-2-yl)methoxy)quinazoline]",IC50,[1],10 to 100 µM
same,IC50,[2],10 to 100 µM
"CN1CCC[C@H]1COc1nc(N2C[C@H]3CC[C@@H](C2)N3)c2cc(F)c(-c3c[nH]c4ccc(Cl)cc34)c(F)c2n1 [P-0310, 4-((1R,5S)-3,8-diazabicyclo[3.2.1]octan-3-yl)-7-(5-chloro-1H-indol-3-yl)-6,8-difluoro-2-(((S)-1-methylpyrrolidin-2-yl)methoxy)quinazoline]",IC50,[1],10 to 100 µM
same,IC50,[2],0.0001 to 10 µM
"CN1CCC[C@H]1COc1nc(N2[C@@H]3CC[C@H]2CN(C(=O)CC(C)(C)O)C3)c2ccc(-c3cc(O)cc4ccccc34)cc2n1 [P-0311, 3-hydroxy-1-((1R,5S)-8-(7-(3-hydroxynaphthalen-1-yl)-2-(((S)-1-methylpyrrolidin-2-yl)methoxy)quinazolin-4-yl)-3,8-diazabicyclo[3.2.1]octan-3-yl)-3-methylbutan-1-one]",IC50,[1],10 to 100 µM
same,IC50,[2],10 to 100 µM
"CN1CCC[C@H]1COc1nc(N2[C@@H]3CC[C@H]2CN(C(=O)Cc2n[nH]c4ccccc24)C3)c2ccc(-c3cc(O)cc4ccccc34)cc2n1 [P-0312, 1-((1R,5S)-8-(7-(3-hydroxynaphthalen-1-yl)-2-(((S)-1-methylpyrrolidin-2-yl)methoxy)quinazolin-4-yl)-3,8-diazabicyclo[3.2.1]octan-3-yl)-2-(1H-indazol-3-yl)ethan-1-one]",IC50,[1],10 to 100 µM
same,IC50,[2],10 to 100 µM
